The target in test [1] is T1, rat adrenergic α1B receptor obtained from Wistar Rat liver (Rattus norvegicus, UniProt P15823).
T1 construct: rat adrenergic α1B receptor obtained from Wistar Rat liver; from tissue; host or cells: Wistar rat liver
T1 sequence (P15823 1-515): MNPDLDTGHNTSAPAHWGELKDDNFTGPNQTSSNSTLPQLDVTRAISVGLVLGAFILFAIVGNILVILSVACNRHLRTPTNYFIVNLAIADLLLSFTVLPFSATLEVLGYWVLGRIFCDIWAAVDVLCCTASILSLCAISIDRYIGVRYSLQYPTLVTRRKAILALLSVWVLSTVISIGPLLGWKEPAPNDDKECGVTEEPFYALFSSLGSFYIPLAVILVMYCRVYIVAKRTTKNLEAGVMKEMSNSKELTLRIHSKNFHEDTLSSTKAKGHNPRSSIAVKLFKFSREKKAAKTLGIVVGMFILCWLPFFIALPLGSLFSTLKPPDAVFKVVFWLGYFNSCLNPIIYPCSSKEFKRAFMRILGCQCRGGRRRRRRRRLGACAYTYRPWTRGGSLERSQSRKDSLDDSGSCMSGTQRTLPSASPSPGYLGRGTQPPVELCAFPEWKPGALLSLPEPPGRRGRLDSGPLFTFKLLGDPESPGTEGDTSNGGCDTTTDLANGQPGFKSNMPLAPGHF
Description: Adrenergic α1B radioligand binding assay ([3H]Prazosin). Particulars: 0.1 μM compound; read-out: Percentage inhibition of ligand binding, Adrenergic α1B. On the procedure: To evaluate in radioligand binding assays the activity of compounds of the invention, rat adrenergic α1B receptor obtained from Wistar Rat liver (Garcia-S'ainz, J. et al, Biochem. Biophys. Res. Commun. 186:760, 1992; Michel, A. et al, Br. J. Pharmacol. 98:883, 1989) in a modified Tris-HCl buffer (50 mM Tris-HCl buffer, pH 7.4, 0.5 mM EDTA) was used. Compounds of the invention were incubated with 0.25 nM [^3H]Prazosin for 60 min at 25° C. Non-specific binding was estimated in the presence of 10 μM phentolamine. Receptor proteins were filtered and washed, the filters were then counted to determine [^3H]Prazosin specifically bound. Compounds were screened at 1 μM or lower, using 1% DMSO as vehicle. Compounds of the invention were tested in this biochemical assay and percent inhibition of specific binding was determined. Biochemical assay results are presented as the percent inhibition of specific binding in Tables B1A-B1D.

Test [2] deals with T2, human recombinant adrenergic α1D receptor (Homo sapiens, UniProt P25100).
T2 construct: expressed in transfected cells; host or cells: HEK-293 cells
T2 sequence (P25100 1-572): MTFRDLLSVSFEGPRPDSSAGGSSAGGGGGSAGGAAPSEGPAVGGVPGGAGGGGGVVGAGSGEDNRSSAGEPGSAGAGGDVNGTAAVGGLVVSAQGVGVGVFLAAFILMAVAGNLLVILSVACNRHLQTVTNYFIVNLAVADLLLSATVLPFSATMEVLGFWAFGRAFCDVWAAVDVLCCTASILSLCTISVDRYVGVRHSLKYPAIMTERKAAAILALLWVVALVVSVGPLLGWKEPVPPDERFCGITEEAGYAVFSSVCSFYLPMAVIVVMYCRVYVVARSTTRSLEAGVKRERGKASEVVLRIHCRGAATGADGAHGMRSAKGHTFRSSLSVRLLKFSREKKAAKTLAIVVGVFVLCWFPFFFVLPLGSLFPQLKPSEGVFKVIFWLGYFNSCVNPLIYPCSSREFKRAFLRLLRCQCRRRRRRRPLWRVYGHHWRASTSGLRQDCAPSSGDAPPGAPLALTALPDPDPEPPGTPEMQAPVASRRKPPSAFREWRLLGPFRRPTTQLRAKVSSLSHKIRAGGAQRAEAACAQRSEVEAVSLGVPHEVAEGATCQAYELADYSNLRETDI
Description: Adrenergic α1D radioligand binding assay ([3H]Prazosin). Particulars: 0.1 μM compound; read-out: Percentage inhibition of ligand binding, Adrenergic α1D. On the procedure:
To evaluate in radioligand binding assays the activity of compounds of the invention, human recombinant adrenergic α1D receptor expressed in human embryonic kidney (HEK-293) cells (Kenny, B. et al, Br. J. Pharmacol. 115(6):981, 1995) in a 50 mM Tris-HCl buffer, pH 7.4, was used. Compounds were incubated with 0.6 nM [3H]Prazosin for 60 min at 25° C. Non-specific binding was estimated in the presence of 10 μM phentolamine. Receptor proteins were filtered and washed, the filters were then counted to determine [3H]Prazosin specifically bound. Compounds were screened at 1 μM or lower, using 1% DMSO as vehicle. Biochemical assay results are presented as the percent inhibition of specific binding in Tables B1A-B1D.

The target in test [3] is T3, human recombinant adrenergic α2B receptor (Homo sapiens, UniProt P18089).
T3 construct: expressed in transfected cells; host or cells: CHO-K1 cells
T3 sequence (P18089 1-450): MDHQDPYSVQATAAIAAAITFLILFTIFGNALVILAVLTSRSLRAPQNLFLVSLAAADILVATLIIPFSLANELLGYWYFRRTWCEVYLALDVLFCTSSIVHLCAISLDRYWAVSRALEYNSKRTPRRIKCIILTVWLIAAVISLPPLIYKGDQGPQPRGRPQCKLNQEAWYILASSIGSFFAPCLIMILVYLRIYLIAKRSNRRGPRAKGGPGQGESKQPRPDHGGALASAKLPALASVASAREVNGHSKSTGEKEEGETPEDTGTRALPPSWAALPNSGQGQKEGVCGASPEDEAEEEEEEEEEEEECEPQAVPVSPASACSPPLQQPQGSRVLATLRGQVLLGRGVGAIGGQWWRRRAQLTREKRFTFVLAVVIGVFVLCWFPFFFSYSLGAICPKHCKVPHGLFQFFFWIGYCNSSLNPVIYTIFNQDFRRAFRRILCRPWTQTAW
Description: Adrenergic α2B radioligand binding assay ([3H]Rauwolscine). The note with it: 0.1 μM compound; read-out: Percentage inhibition of ligand binding, Adrenergic α2B. On the procedure:
To evaluate in radioligand binding assays the activity of compounds of the invention, human recombinant adrenergic α2B receptor expressed in Chinese hamster ovary (CHO) K1 cells (Uhlen, S. et al, Eur. J. Pharmacol. 343(1):93, 1998) in a modified Tris-HCl buffer (50 mM Tris-HCl, pH 7.4, 12.5 mM MgCl2, 1 mM EDTA, 0.2% BSA) was used. Compounds of the invention were incubated with 2.5 nM [3H]Rauwolscine for 60 min at 25° C. Non-specific binding was estimated in the presence of 10 μM Prazosin. Receptor proteins were filtered and washed, the filters were then counted to determine [3H]Rauwolscine specifically bound. Compounds were screened at 1 μM or lower, using 1% DMSO as vehicle. Compounds of the invention were tested in this biochemical assay and percent inhibition of specific binding was determined. Biochemical assay results are presented as the percent inhibition of specific binding in Tables B1A-B1D.

Take `Cc1ccc2c(c1)c1c3n2C(c2ccccc2)=CCC3(C)CN(C)C1` (stereo not drawn) [D10]: the results for the inhibition at 0.1 µM in test [1], in test [2] and in test [3] were -3%, -6% and -6%, respectively.

Take `Cc1cc2c3c(c1)c1c(n3CC(C)(c3ccc(C)nc3)OC(C)C2)CCN(C)C1` (stereo not drawn) [B160]: the inhibition (usually the change of the read-out against control, counted positive when it falls) at 0.1 µM in test [1] is 2%; in test [2], 15%; in test [3], -8%.

In the case of `Cc1cc(-c2ccncc2)c2c(c1)c1c(n2C)CCN(C)C1` [A9], the inhibition at 0.1 µM is -9% in test [1], -1% in test [2] and -7% in test [3].

For the compound `Cc1cc2c3c(c1)c1c(n3C(c3ccccc3)C2)CCN(C)C1` (stereo not drawn) [B12], the inhibition at 0.1 µM in test [1] turned out to be 28%; in test [2], 28%; in test [3] it was 72%.

Take `Cc1ccc2c(c1)c1c3n2CC(c2ccncc2)=CCC3(C)CN(C)C1` (stereo not drawn) [D11]: the inhibition at 0.1 µM in test [1] is 16%; in test [2] it was -5%; in test [3], 30%.

On to `Cc1cc2c3c(c1)c1c(n3CC(C)(c3ccncc3)OC(C)C2)CCN(C)C1` (stereo not drawn) [B165], for which the values for the inhibition at 0.1 µM in test [1], in test [2] and in test [3] were 0%, 0% and 43%, respectively.

For `Cc1ccc2c(c1)c1c3n2C(c2ccccc2)CCC3(C)CN(C)C1` (stereo not drawn) [D12], the inhibition at 0.1 µM is 10% in test [1], -3% in test [2] and -7% in test [3].

As to `Cc1cc(C#Cc2cccs2)c2[nH]c3c(c2c1)CN(C)CC3` [A8], the inhibition at 0.1 µM in test [1] is -3%; in test [2] it was 3%; in test [3], -1%.

Regarding `Cc1cc(C#Cc2nccs2)c2[nH]c3c(c2c1)CN(C)CC3` [A16], the inhibition at 0.1 µM in test [1] was 1%; in test [2], -2%; in test [3], 17%.

Turning to `Cc1cc2c3c(c1)c1c(n3C[C@@](C)(c3ccncc3)O[C@H]2C)CCN(C)C1` [B162], the values for the inhibition at 0.1 µM in test [1], in test [2] and in test [3] were -6%, -2% and 27%, respectively.

Turning to `Cc1cc(/C=C/c2ccc(C)nc2)c2c(c1)c1c(n2C)CCN(C)C1` [A14], the values for the inhibition at 0.1 µM in test [1], in test [2] and in test [3] were 0%, -9% and -3%, respectively.

Take `Cc1cc(C#Cc2ccncc2)c2c(c1)c1c(n2C)CCN(C)C1` [A17]: the values for the inhibition at 0.1 µM in test [1], in test [2] and in test [3] were 9%, -5% and 21%, respectively.

In the case of `Cc1cc(C#Cc2ccc(C)nc2)c2c(c1)c1c(n2C)CCN(C)C1` [A12], the inhibition at 0.1 µM is 2% in test [1], 38% in test [2] and 6% in test [3].

With `C#Cc1cc(C)cc2c3c(n(C)c12)CCN(C)C3` [A10], the inhibition at 0.1 µM was 11% in test [1], 26% in test [2] and 8% in test [3].

With `Cc1cc(-c2ccc(F)cc2)c2c(c1)c1c(n2C)CCN(C)C1` [A7], the inhibition at 0.1 µM in test [1] was 2%; in test [2] it was 4%; in test [3] it was -9%.

In the case of `Cc1ccc(C#Cc2cc(Cl)cc3c4c(n(C)c23)CCN(C)C4)cn1` [A18], the inhibition at 0.1 µM in test [1] is 30%; in test [2], 34%; in test [3], 38%.

As to `C/C(=C\c1cc(C)cc2c3c(n(C)c12)CCN(C)C3)c1ccncc1` [A11], the inhibition at 0.1 µM is -1% in test [1], -1% in test [2] and 14% in test [3].

In the case of `C/C(=C\c1cc(C)cc2c3c(n(C)c12)CCN(C)C3)c1ccc(C)nc1` [A15], the inhibition at 0.1 µM in test [1] is 0%; in test [2], 5%; in test [3] it was 21%.

In the case of `Cc1cc(CCc2ccc(C)nc2)c2c(c1)c1c(n2C)CCN(C)C1` [A13], the inhibition at 0.1 µM in test [1] was -9%; in test [2] it was 8%; in test [3], 5%.

For the compound `Cc1cc2c3c(c1)c1c(n3C[C@](C)(c3ccncc3)O[C@H]2C)CCN(C)C1` [B163], the inhibition at 0.1 µM in test [1] turned out to be 6%; in test [2] it was 15%; in test [3], 4%.

The values above are taken from patent US20140303144A1, “COMPOUNDS AND METHODS OF TREATING HYPERTENSION” (Medivation Technologies, Inc., priority 2011, published 2014).
